Assay results published in patent US20230001005A1, “TREATMENT OF CANCERS WITH ANTIBODY DRUG CONJUGATES (ADC) THAT BIND TO 191P4D12 PROTEINS” (AGENSYS, INC., priority 2019, published 2023).
Starred links: 1 amine or outer side, 2 acyl side, 3 side chain; linkers in the order of their positions; H or OH if unused. Non-standard residues stand in square brackets, D forms with d. Residues, ends and D or L forms follow the SMILES beside them. *: point of attachment. Dolaproine = CO[C@@H]([C@@H]1CCCN1)[C@@H](C)C(=O)O; Hexanoyl(6-maleimido) = O=C1C=CC(=O)N1CCCCCC(=O)*; Dil = CC[C@H](C)[C@H](NC)[C@@H](CC(=O)O)OC; PABC = O=C(OCc1ccc(N[*:1])cc1)[*:2]; X1 = C[C@@H](N*)[C@@H](O)c1ccccc1; Cit = NC(=O)NCCC[C@H](N)C(=O)O; NMeV = CN[C@H](C(=O)O)C(C)C

Tests used:
[1] = tested on: L5178Y TK+/−mouse lymphoma; assay: L5178Y TK+/− mouse lymphoma mutation assay; assay type: cell-based
rats [2] = assay: Micronucleus test in rats; assay type: in vivo
[3] = tested on: squamous NSCLC, Gastric (GEJ) cancer, HNSCC, NSCLC-adenocarcinoma, head & neck cancer-squamous, and breast cancer; conditions: MMAE, Vinca, or both MMAE and Vinca; Vinca used if data for MMAE was not available; cited from earlier work
bacteria = assay: Reverse mutation test in bacteria (Ames test)
[4] = Absorbance / phototoxicity assessment (ICH S10)
[5] = tested on: cell line engineered to express human 191P4D12; assay: In vitro cell survival, engineered cell line; assay type: cell-based
[6] = tested on: human lung cancer xenograft AG-L4; assay: Efficacy in subcutaneous established human lung cancer xenograft AG-L4 in SCID mice; assay type: in vivo; conditions: 10 mg/kg every seven days for two doses, intravenous bolus; compared to control ADC
Method: In another experiment, patient-derived lung cancer xenograft AG-L4 was maintained by serial passages in SCID mice. Stock tumors were harvested sterilely and minced into 1 mm^3 pieces. Six (6) pieces were implanted into the flank of individual SCID mice. Tumors were allowed to grow untreated until they reached an approximate volume of 200 mm^3. The Ha22-2(2,4)6.1vcMMAE and the control ADC were dosed at 10 mg/kg every seven (7) days for two doses by intravenous bolus injection. The amount of ADC administered was based on the individual body weight of each animal obtained immediately prior to dosing. Tumor growth was monitored using caliper measurements every 3 to 4 days. Tumor volume was calculated as Width^2×Length/2, where width is the smallest dimension and length is the largest dimension.

[7] = tested on: human breast cancer xenograft BT-483; assay: Efficacy in subcutaneous established human breast cancer xenograft BT-483 in SCID mice; assay type: in vivo; conditions: 5 mg/kg every four days for four doses, intravenous bolus; compared to control ADC
Method: In this experiment, human breast cancer BT-483 cells were used to generate stock xenografts, which were maintained by serial passages in SCID mice. Stock tumors were harvested sterilely and minced into 1 mm^3 pieces. Six (6) pieces were implanted into the flank of individual SCID mice. Tumors were allowed to grow untreated until they reached an approximate volume of 100 mm^3. The Ha22-2(2,4)6.1vcMMAE and the control ADC were dosed at 5 mg/kg every four (4) days for four (4) doses by intravenous bolus injection. The amount of ADC administered was based on the individual body weight of each animal obtained immediately prior to dosing. Tumor growth was monitored using caliper measurements every 3 to 4 days. Tumor volume was calculated as Width^2×Length/2, where width is the smallest dimension and length is the largest dimension.

lung cancer xenografts = assay: Formation of lung cancer xenografts (subcutaneous mouse xenograft model); design: species or system SCID mice; conditions: in vivo
Method: (§1) Subcutaneous (s.c.) tumors are generated by injection of 5×10^4- 10^6 cancer cells mixed at a 1:1 dilution with Matrigel (Collaborative Research) in the right flank of male SCID mice. To test ADC efficacy on tumor formation, ADC injections are started on the same day as tumor-cell injections. As a control, mice are injected with either purified human IgG or PBS; or a purified MAb that recognizes an irrelevant antigen not expressed in human cells. In preliminary studies, no difference is found between control IgG or PBS on tumor growth. Tumor sizes are determined by caliper measurements, and the tumor volume is calculated as width^2×Length/2, wherein width is the smallest dimension and length is the largest dimension. Mice with subcutaneous tumors greater than 1.5 cm in diameter are sacrificed.

breast cancer xenografts = assay: Formation of breast cancer xenografts (subcutaneous mouse xenograft model); design: species or system SCID mice; conditions: in vivo
Method: as §1

[8] = tested on: xenograft of a patient-derived bladder cancer; assay: Tumor xenograft model, patient-derived bladder cancer; assay type: in vivo; conditions: in a dose-dependent manner
[9] = tested on: xenograft of human HR+breast cancer cell line; assay: Tumor xenograft model, human HR+ breast cancer cell line; assay type: in vivo; conditions: 5 mg/kg every 4 days for 4 doses
[10] = tested on: xenografts of human lung adenocarcinoma cell line; assay: Tumor xenograft model, human lung adenocarcinoma cell line; assay type: in vivo
[11] = tested on: patient-derived lung adenocarcinoma; assay: Tumor xenograft model, patient-derived lung adenocarcinoma; assay type: in vivo
[12] = tested on: patient-derived TNBC cell xenograft; assay: Patient-derived TNBC cell xenograft model; assay type: in vivo
male and female rats = assay: Immunogenicity in rats; assay type: in vivo
cynomolgus monkeys [13] = assay: Immunogenicity in cynomolgus monkeys; assay type: in vivo
cynomolgus monkeys [14] = tested on: cynomolgus monkeys
[15] = tested on: acute myeloid leukemia (AML) at relapse; conditions: administered alone; cited from earlier work
rats [16] = assay: Toxicity studies in rats; assay type: in vivo
[17] = tested on: metastatic urothelial cancer; assay: EV-101 phase 1 dose escalation/expansion study; assay type: in vivo, human
Description: EV-101 is a phase 1 dose escalation/expansion study that enrolled patients with 191P4D12-expressing solid tumors, (eg, metastatic urothelial cancer [UC]), who progressed on ≥1 prior chemotherapy regimen, including a cohort of patients with metastatic UC who received prior anti-PD-(L)1 therapy.
Enfortumab vedotin provided durable responses and meaningful survival results in patients after anti-PD-(L)-1 therapy in a population with a high unmet medical need. The confirmed ORR was 45% by a central review in patients who were treated with enfortumab vedotin 1.25 mg/kg. The median overall survival (OS) of 12.3 months is encouraging given the historical median OS is ≤10.3 months (Bellmunt J et al, N Eng J Med. 2017; 376(11):1015-1026).

[18] = tested on: patients who progressed after platinum chemotherapy and a PD-1/L1 inhibitor; assay: EV-201 pivotal phase 2 study; assay type: in vivo, human
Method: In a pivotal phase 2 study (EV-201), patients must have had prior treatment with platinum-containing chemotherapy or be platinum-naïve and ineligible for cisplatin treatment. […] The confirmed ORR was 44% in patients treated with enfortumab vedotin 1.25 mg/kg. The median OS was 11.7 months and the median duration of response was 7.6 months.

191P4D12 = target: T1, 191P4D12 (Homo sapiens, UniProt Q96NY8); assay: Comparability study: binding affinity to 191P4D12
T1 sequence (Q96NY8 32-510): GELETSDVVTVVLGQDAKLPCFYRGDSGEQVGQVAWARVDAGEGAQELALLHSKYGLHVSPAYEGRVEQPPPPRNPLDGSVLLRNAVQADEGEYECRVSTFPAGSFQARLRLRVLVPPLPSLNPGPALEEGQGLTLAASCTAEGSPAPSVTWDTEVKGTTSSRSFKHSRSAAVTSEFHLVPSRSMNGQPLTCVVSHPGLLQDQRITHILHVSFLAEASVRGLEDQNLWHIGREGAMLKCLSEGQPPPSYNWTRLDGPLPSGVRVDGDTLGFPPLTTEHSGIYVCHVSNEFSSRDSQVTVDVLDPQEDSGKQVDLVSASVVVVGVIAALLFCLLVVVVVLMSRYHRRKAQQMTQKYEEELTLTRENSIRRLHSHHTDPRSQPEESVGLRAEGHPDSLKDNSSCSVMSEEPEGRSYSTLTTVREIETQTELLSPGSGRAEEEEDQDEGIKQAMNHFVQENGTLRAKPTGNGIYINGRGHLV

[19] = Comparability study: in vitro cytotoxicity; assay type: cell-based
[20] = Comparability study: in vivo antitumor activity
monkeys = assay: Toxicity studies in monkeys; conditions: sexually immature male monkeys, doses up to 6 mg/kg

## CC[C@H](C)[C@@H]([C@@H](CC(=O)N1CCC[C@H]1[C@H](OC)[C@@H](C)C(=O)N[C@H](C)[C@@H](O)c1ccccc1)OC)N(C)C(=O)[C@@H](NC(=O)[C@@H](NC)C(C)C)C(C)C [MMAE, monomethyl auristatin E] (H-[NMeV]V[Dil][Dolaproine]-X1)
[1]
  genotoxic potential: no discernible genotoxic potential
Rats [2]
  chromosomal aberrations: induce chromosomal aberrations
[3]
  sensitivity of the cancers to cytotoxicity: sensitive to cytotoxicity
bacteria
  genotoxic potential: no discernible genotoxic potential
[4]
  absorbance in the range of 290 nm to 700 nm: no absorbance

## CC[C@H](C)[C@@H]([C@@H](CC(=O)N1CCC[C@H]1[C@H](OC)[C@@H](C)C(=O)N[C@H](C)[C@@H](O)c1ccccc1)OC)N(C)C(=O)[C@@H](NC(=O)[C@H](C(C)C)N(C)C(=O)OCc1ccc(NC(=O)[C@H](CCCNC(N)=O)NC(=O)[C@@H](NC(=O)CCCCCN2C(=O)C=CC2=O)C(C)C)cc1)C(C)C [vc-MMAE, valine-citrulline linker-MMAE] ({Hexanoyl(6-maleimido)}-V[Cit][PABC][NMeV]V[Dil][Dolaproine]-X1)
[4]
  absorbance against the criteria for phototoxicity testing as defined in the ICH S10 guidance: did not meet the criteria for phototoxicity testing

## AGS-22M6
[5]
  cell survival / cell growth: did not affect cell growth

## AGS-22M6E: ADC derived from a murine hybridoma cell line; antibody Ha22-2(2,4)6.1 conjugated to MMAE via vc linker
[6]
  growth of AG-L4 lung cancer xenografts (tumor volume): significantly inhibited the growth
[7]
  growth of BT-483 breast tumor xenografts (tumor volume): significantly inhibited the growth
Lung cancer xenografts
  formation of lung cancer xenografts: inhibits formation
Breast cancer xenografts
  formation of breast cancer xenografts: inhibits formation
[5]
  cell survival / cell growth: inhibited cell survival
[8]
  tumor growth: significantly inhibited the tumor growth
[9]
  tumor growth: significantly inhibited the tumor growth
[10]
  tumor growth: significantly inhibited tumor growth
[11]
  tumor growth: significantly inhibited tumor growth
[12]
  pharmacological antitumor activity, enfortumab vedotin versus AGS-22M6E: comparable
Male and female rats
  immunogenicity: moderately immunogenic
Cynomolgus monkeys [13]
  immunogenicity: moderately immunogenic
  immunogenicity, AGS-22M6E versus enfortumab vedotin: comparable
Cynomolgus monkeys [14]
  pharmacokinetics, AGS-22M6E versus enfortumab vedotin: comparable
  safety profile, AGS-22M6E versus enfortumab vedotin: comparable

## CT-011: anti-PD-1 antibody, a humanized antibody
[15]
  response: failed to show response

## enfortumab vedotin
[12]
  pharmacological antitumor activity, enfortumab vedotin versus AGS-22M6E: comparable
Rats [16]
  dose at which testicular toxicity (seminiferous tubule degeneration and hypospermia in the epididymis) was noted: ≥ 2.0 mg/kg
Rats [16]; end of a 24-week recovery period
  reversibility of testicular findings: partially reversed
Cynomolgus monkeys [13]
  immunogenicity, AGS-22M6E versus enfortumab vedotin: comparable
[17]
  median overall survival (OS): 12.3 months
[17]; by a central review, 1.25 mg/kg, metastatic urothelial cancer after anti-PD-(L)-1 therapy
  confirmed ORR: 45%
[18]
  median OS: 11.7 months
  median duration of response: 7.6 months
[18]; 1.25 mg/kg
  confirmed ORR: 44%
191P4D12
  comparability of binding affinity to 191P4D12, enfortumab vedotin versus AGS-22M6E: confirmed
[19]
  comparability of in vitro cytotoxicity, enfortumab vedotin versus AGS-22M6E: confirmed
[20]
  comparability of in vivo antitumor activity, enfortumab vedotin versus AGS-22M6E: confirmed
Cynomolgus monkeys [14]
  safety profile, AGS-22M6E versus enfortumab vedotin: comparable
monkeys
  testicular toxicity: not observed
[4]; concluded from absorbance of MMAE and vc-MMAE
  photoreactivity / direct phototoxicity: not considered to be sufficiently photoreactive
